Assay results as given in patent publication US20210047291A1, “PESTICIDALLY ACTIVE HETEROCYCLIC DERIVATIVES WITH SULFUR CONTAINING SUBSTITUENTS” (SYNGENTA PARTICIPATIONS AG, priority 2018, published 2021).

Tests used:
Format in all cases: in vivo
[1] = system: Diabrotica Balteata (Corn Root Worm); assay: Example B2: Diabrotica balteata, maize sprouts, L2 larvae; details: for percent effect (mortality or growth inhibition) at 200 ppm: Diabrotica balteata, 96 h, application rate of 200 ppm, L2 larvae, 4 days after infestation, read-out: effect in at least one of the two categories (mortality or growth inhibition)
Procedure: Maize sprouts placed onto an agar layer in 24-well microtiter plates were treated with aqueous test solutions prepared from 10,000 ppm DMSO stock solutions by spraying. After drying, the plates were infested with L2 larvae (6 to 10 per well). The samples were assessed for mortality and growth inhibition in comparison to untreated samples 4 days after infestation.

[2] = system: Euschistus heros (Neotropical Brown Stink Bug); assay: Example B3: Euschistus heros, soybean leaves, N2 nymphs; details: for percent effect (mortality or growth inhibition) at 200 ppm: Euschistus heros, 120 h, application rate of 200 ppm, N2 nymphs, 5 days after infestation, read-out: effect in at least one of the two categories (mortality or growth inhibition); for mortality at 50 ppm: Concentration 50 ppm, Euschistus heros (Example B3), read-out: Mortality (%)
Procedure: Soybean leaves on agar in 24-well microtiter plates were sprayed with aqueous test solutions prepared from 10,000 ppm DMSO stock solutions. After drying the leaves were infested with N2 nymphs. The samples were assessed for mortality and growth inhibition in comparison to untreated samples 5 days after infestation.

[3] = system: Myzus persicae (Green peach aphid); assay: Example B5: Myzus persicae feeding/contact activity, sunflower leaf discs; details: foliar; for mortality at 200 ppm: Myzus persicae, 144 h, application rate of 200 ppm, mixed ages, 6 days after infestation, read-out: mortality; for mortality at 12.5 ppm: Concentration 12.5 ppm, Myzus persicae (feeding/contact, Example B5), read-out: Mortality (%)
Procedure: Sunflower leaf discs were placed onto agar in a 24-well microtiter plate and sprayed with aqueous test solutions prepared from 10,000 ppm DMSO stock solutions. After drying, the leaf discs were infested with an aphid population of mixed ages. The samples were assessed for mortality 6 days after infestation.

[4] = system: Melodoigyne incognita; assay: Example B14: Melodoigyne incognita juvenile mobility, in vitro profiling in 96 well plate; details: 200 ppm; after 24 h; second stage juveniles; read-out: control (juvenile mobility)
Procedure: Test solutions are prepared from 10,000 ppm DMSO stock solutions with a TECAN robot to achieve 20 μL of 1000, 200, 100, 50, 25 and 12.5 ppm. For each concentration three replicates are produced. Per well, 80 μL nematode solution is added containing 100 to 150 freshly harvested second stage juveniles of Melodoigyne incognita. The plates are covered and stored at room temperature in the dark and incubated for 24 h. Mobility of the exposed juveniles in a treated well is measured using an imaging tool and compared to an average of 12 untreated replicates.

[5] = system: Myzus persicae (Green peach aphid); assay: Example B6: Myzus persicae systemic activity, pea seedlings; details: for mortality at 1.5 ppm: Concentration 1.5 ppm, Myzus persicae (systemic, Example B6), read-out: Mortality (%); for mortality at 24 ppm: Myzus persicae, 144 h, test rate of 24 ppm, mixed ages, 6 days after placing seedlings into test solutions, read-out: mortality
Procedure: Roots of pea seedlings infested with an aphid population of mixed ages were placed directly into aqueous test solutions prepared from 10,000 DMSO stock solutions. The samples were assessed for mortality 6 days after placing seedlings into test solutions.

For CCS(=O)(=O)c1cc(NC(C)=O)cnc1-c1nc2cc(C(F)(F)F)ncc2n1C [drawing 155, reference compound], the “Mortality (%)” value ([1]; Concentration 200 ppm, Diabrotica balteata (Example B2)) was 0%.
With CCSc1cc(N(C)C(C)=O)cnc1-c1nc2cc(C(F)(F)F)ncc2n1C [P33, N-[5-ethylsulfanyl-6-[3-methyl-6-(trifluoromethyl)imidazo[4,5-c]pyridin-2-yl]-3-pyridyl]-N-methyl-acetamide] the percent effect (mortality or growth inhibition) at 200 ppm [2] was at least 80% and the mortality at 200 ppm [3] was at least 80%.
CCS(=O)(=O)c1cc(N2CCNC2=O)cnc1-c1nc2cc(C(F)(F)F)ncc2n1C [P36, 1-[5-ethylsulfonyl-6-[3-methyl-6-(trifluoromethyl)imidazo[4,5-c]pyridin-2-yl]-3-pyridyl]imidazolidin-2-one] showed a pest or weed control at 200 ppm [4] of at least 80%, a mortality at 50 ppm [2] of 100% and a percent effect (mortality or growth inhibition) at 200 ppm [2] of at least 80%. For the same molecule, the mortality at 200 ppm [3] was at least 80%, the mortality at 12.5 ppm [3] was 90% and the mortality at 1.5 ppm [5] was 100%. The mortality at 24 ppm [5] was at least 80%.
Molecule CCS(=O)(=O)c1ccc(N2CCN(C)C2=O)nc1-c1nc2cc(C(F)(F)F)ncc2n1C [reference compound] has a mortality at 50 ppm [2] of 50%, a mortality at 12.5 ppm [3] of 80% and a mortality at 1.5 ppm [5] of 0%.
With CCS(=O)(=O)c1cc(N2CCOCC2=O)cnc1-c1nc2cc(C(F)(F)F)ncc2n1C [P15, 4-[5-ethylsulfonyl-6-[3-methyl-6-(trifluoromethyl)imidazo[4,5-c]pyridin-2-yl]-3-pyridyl]morpholin-3-one] the pest or weed control at 200 ppm [4] was at least 80%, the percent effect (mortality or growth inhibition) at 200 ppm [2] was at least 80% and the mortality at 200 ppm [3] was at least 80%. For the same molecule, the mortality at 24 ppm [5] was at least 80%.
With CCS(=O)(=O)c1cc(N(C)C(=O)CCSC)cnc1-c1nc2cc(C(F)(F)F)ncc2n1C [P41, N-[5-ethylsulfonyl-6-[3-methyl-6-(trifluoromethyl)imidazo[4,5-c]pyridin-2-yl]-3-pyridyl]-N-methyl-3-methylsulfanyl-propanamide] the pest or weed control at 200 ppm [4] was at least 80%, the percent effect (mortality or growth inhibition) at 200 ppm [2] was at least 80% and the mortality at 200 ppm [3] was at least 80%.
For CCS(=O)(=O)c1cc(N(C)C(=O)CCS(C)(=O)=O)cnc1-c1nc2cc(C(F)(F)F)ncc2n1C [P31, N-[5-ethylsulfonyl-6-[3-methyl-6-(trifluoromethyl)imidazo[4,5-c]pyridin-2-yl]-3-pyridyl]-N-methyl-3-methylsulfonyl-propanamide], the percent effect (mortality or growth inhibition) at 200 ppm [2] was at least 80% and the mortality at 200 ppm [3] was at least 80%.
In the case of CCS(=O)(=O)c1cc(N(C)C(=O)CC(F)(F)F)cnc1-c1nc2cc(C(F)(F)F)ncc2n1C [P28, N-[5-ethylsulfonyl-6-[3-methyl-6-(trifluoromethyl)imidazo[4,5-c]pyridin-2-yl]-3-pyridyl]-3,3,3-trifluoro-N-methyl-propanamide], the percent effect (mortality or growth inhibition) at 200 ppm [2] is reported as at least 80%, the mortality at 200 ppm [3] is reported as at least 80% and the percent effect (mortality or growth inhibition) at 200 ppm [1] is reported as at least 80%. It also gave a mortality at 24 ppm [5] of at least 80%.
Molecule CCN(C(=O)CCl)c1cnc(-c2nc3cc(C(F)(F)F)ncc3n2C)c(S(=O)(=O)CC)c1 [P20, 2-chloro-N-ethyl-N-[5-ethylsulfonyl-6-[3-methyl-6-(trifluoromethyl)imidazo[4,5-c]pyridin-2-yl]-3-pyridyl]acetamide] has a pest or weed control at 200 ppm [4] of at least 80%, a percent effect (mortality or growth inhibition) at 200 ppm [2] of at least 80% and a mortality at 200 ppm [3] of at least 80%. It also gave a percent effect (mortality or growth inhibition) at 200 ppm [1] of at least 80% and a mortality at 24 ppm [5] of at least 80%.
For CCS(=O)(=O)c1cc(N2CCS(=O)(=O)CC2=O)cnc1-c1nc2cc(C(F)(F)F)ncc2n1C [P18, 4-[5-ethylsulfonyl-6-[3-methyl-6-(trifluoromethyl)imidazo[4,5-c]pyridin-2-yl]-3-pyridyl]-1,1-dioxo-1,4-thiazinan-3-one], the percent effect (mortality or growth inhibition) at 200 ppm [2] was at least 80%.
CCC(=O)N(CC(F)(F)F)c1cnc(-c2nc3cc(C(F)(F)F)ncc3n2C)c(S(=O)(=O)CC)c1 [P32, N-[5-ethylsulfonyl-6-[3-methyl-6-(trifluoromethyl)imidazo[4,5-c]pyridin-2-yl]-3-pyridyl]-N-(2,2,2-trifluoroethyl)propanamide] showed a percent effect (mortality or growth inhibition) at 200 ppm [2] of at least 80%, a mortality at 200 ppm [3] of at least 80% and a percent effect (mortality or growth inhibition) at 200 ppm [1] of at least 80%. It also gave a mortality at 24 ppm [5] of at least 80%.
In the case of CCS(=O)(=O)c1cc(N2CCN(C)C2=O)cnc1-c1nc2cc(C(F)(F)F)ncc2n1C [P37, 1-[5-ethylsulfonyl-6-[3-methyl-6-(trifluoromethyl)imidazo[4,5-c]pyridin-2-yl]-3-pyridyl]-3-methyl-imidazolidin-2-one], the pest or weed control at 200 ppm [4] is reported as at least 80%, the mortality at 50 ppm [2] is reported as 100% and the percent effect (mortality or growth inhibition) at 200 ppm [2] is reported as at least 80%. The mortality at 200 ppm [3] was at least 80%, the mortality at 12.5 ppm [3] was 90% and the mortality at 1.5 ppm [5] was 100%. It also gave a mortality at 24 ppm [5] of at least 80%.
In the case of CCSc1cc(N(C(C)=O)C(C)C)cnc1-c1nc2cc(C(F)(F)F)ncc2n1C [P47, N-[5-ethylsulfanyl-6-[3-methyl-6-(trifluoromethyl)imidazo[4,5-c]pyridin-2-yl]-3-pyridyl]-N-isopropyl-acetamide], the percent effect (mortality or growth inhibition) at 200 ppm [2] is reported as at least 80%.
Work on CCS(=O)(=O)c1cc(NC(=O)C(C)(C)C)cnc1-c1nc2cc(C(F)(F)F)ncc2n1C [P39, N-[5-ethylsulfonyl-6-[3-methyl-6-(trifluoromethyl)imidazo[4,5-c]pyridin-2-yl]-3-pyridyl]-2,2-dimethyl-propanamide] yielded a pest or weed control at 200 ppm [4] of at least 80%, a percent effect (mortality or growth inhibition) at 200 ppm [2] of at least 80% and a mortality at 200 ppm [3] of at least 80%. For the same molecule, the mortality at 24 ppm [5] was at least 80%.
For CCS(=O)(=O)c1cc(-n2ccccc2=O)cnc1-c1nc2cc(C(F)(F)F)ncc2n1C [reference compound], the mortality at 50 ppm [2] was 50%, the mortality at 12.5 ppm [3] was 0% and the mortality at 1.5 ppm [5] was 0%.
CCS(=O)(=O)c1cc(NC(=O)C(C)(C)O)cnc1-c1nc2cc(C(F)(F)F)ncc2n1C [P8, N-[5-ethylsulfonyl-6-[3-methyl-6-(trifluoromethyl)imidazo[4,5-c]pyridin-2-yl]-3-pyridyl]-2-hydroxy-2-methyl-propanamide] was tested, and the percent effect (mortality or growth inhibition) at 200 ppm [2] was at least 80%, the mortality at 200 ppm [3] was at least 80% and the mortality at 24 ppm [5] was at least 80%.
CCS(=O)(=O)c1cc(NC(=O)C(F)(F)F)cnc1-c1nc2cc(C(F)(F)F)ncc2n1C [P44, N-[5-ethylsulfonyl-6-[3-methyl-6-(trifluoromethyl)imidazo[4,5-c]pyridin-2-yl]-3-pyridyl]-2,2,2-trifluoro-acetamide] showed a pest or weed control at 200 ppm [4] of at least 80%, a percent effect (mortality or growth inhibition) at 200 ppm [2] of at least 80% and a mortality at 200 ppm [3] of at least 80%. For the same molecule, the percent effect (mortality or growth inhibition) at 200 ppm [1] was at least 80%.
Work on CCS(=O)(=O)c1cc(NC(=O)C2CC2)cnc1-c1nc2cc(C(F)(F)F)cnc2n1C [reference compound] yielded a mortality at 1.5 ppm [5] of 0%.
CCS(=O)(=O)c1cc(N(C)C(C)=O)ccc1-c1nc2cc(C(F)(F)F)ncc2n1C [P16, N-[3-ethylsulfonyl-4-[3-methyl-6-(trifluoromethyl)imidazo[4,5-c]pyridin-2-yl]phenyl]-N-methyl-acetamide] showed a percent effect (mortality or growth inhibition) at 200 ppm [2] of at least 80%, a mortality at 200 ppm [3] of at least 80% and a mortality at 24 ppm [5] of at least 80%.
